Test results from US20240000811A1, “INOSITOL HEXAKISPHOSPHATE ANALOGUES FOR TREATMENT OF CALCIFICATION ASSOCIATED KIDNEY DISEASES” (INOSITEC AG, priority 2020, published 2024).

Legend:
[1] = test system: RPTEC/TERT 1 human proximal tubule cells; test: RNA sequencing of RPTEC treated with Ca/P and compound; assay type: cell-based; conditions: 50 μM compound
Experimental: RNA sequencing Cells were cultured as described in the imaging assay and treated with a medium control (ProxUp basal medium containing 1/1 mM Ca/P), 5/7 mM Ca/P, 5/7 mM Ca/P in medium containing 50 μM (OEG2)2-IP4 or 50 μM (OEG2)2-IP4 in medium for 24 h. Total RNA was extracted using the RNeasy kit (Quiagen) according to the manufacturer's instructions. Three wells per sample group were prepared and total RNA extracted of those 3 wells pooled. mRNA was purified and RNAseq library was prepared using the TrueSeq RNA kit (Illumina). Sequencing was performed on a Novaseq 6000 (Illumina). Reads were aligned to the human reference genome GRCh38.p10 using the STAR tool (https://github.com/alexdobin/STAR) and transcripts quantified using the Kallisto program (42). Ensembl release 91 was used for the gene model definitions. […] The heatmap was plotted using R software. Overrepresentation analysis was performed on Webgestalt.org (v2019) (43), using differentially expressed genes with p≤0.01, log 2fold change≥0.5. Differential expressed genes were compared to the gene ontology—biological process functional database and as a reference set the human genome—protein coding was used. The weighted set cover of the top 30 enriched categories was plotted. For comparison of expression levels of the selected genes, the fragments per kilobase of exon model per million reads mapped (FPKM) were used. Three independent experiments were performed. RNA sequencing raw data is available on the EMBL Nucleotide Sequence Database (ENA) under the accession number PRJEB38397.

[2] = test system: RPTEC/TERT 1 human proximal tubule cells; test: Imaging assay: CaP adhesion/deposition and cellular changes on RPTEC monolayers treated with 5/7 mM Ca/P; assay type: cell-based
Experimental: RPTEC/TERT 1 human proximal tubule cells (RPTEC) were cultured in T75 tissue culture flasks using ProxUp basal medium mixed with ProxUp supplements at 37° C. and 5% CO2 according to manufacturer's recommendations. Cells were used up to passage 30 and regularly tested for Mycoplasma infections. For experiments, RPTEC were cultured in 24-well plates at a seeding density of 150′000 cells/cm^2. Cell viability assessment and cell counting before seeding was performed using an automated cell counter (BioRad TC 20, Hercules, CA, USA).
For the comparison of selected IP6 analogues, ProxUp basal medium was prepared with the selected inhibitor and added to each well. Then, CaP precipitation was induced by direct addition of first, phosphate and second, calcium. Final concentrations of 7 mM phosphate and 5 mM calcium were used. Cells were incubated for 24 h at 37° C. and 5% CO2. Spiked medium was removed, and cells were washed twice with PBS before staining.
For staining, ProxUp basal medium was mixed with calcein (500 nM final concentration), EthD (6 μM final concentration), CellMask stain ([…]) and Hoechst 33342. Staining mixture was added to RPTEC and cells were incubated for 30 min in the dark at 37° C. and 5% CO2. Staining solution was removed, cells were washed with PBS once and ProxUp basal medium was added. Cells were immediately imaged after staining. Images were obtained by epifluorescence microscopy at 37° C., using a Leica CTR6000 microscope. For quantification 3 wells/condition were prepared and 3 images/well were taken. For preliminary adhesion experiments images were taken with a 10× objective, for the imaging assay 20× objective images were taken.
Multichannel images were saved as individual channel images in 8-bit tiff format. For analysis Hoechst channel images were thresholded using the triangle threshold. Touching nuclei of the binary image were further segmented using the watershed algorithm with the distance transform of the binary image as input and local maxima thereof as seeds.
For EthD channel images, high level of background noise was observed, potentially as a result of fluorescence of the CellMask stain bleeding through. […] A fixed minimum threshold was set at 60. Watershed segmentation similar to the Hoechst channel was performed to segment touching objects. For the calcein channel images adaptive thresholding by triangle thresholding achieved good detection of CaP deposits, which was validated by visual comparison to brightfield channel images. For compound experiments, an additional upper threshold was set to the minimum threshold of the pos.ctrl images for the respective experiment. Thereby an overly insensitive threshold in images with a high amount of CaP deposition was circumvented. The sum of foreground pixels of the binary image was used to calculate the total area of CaP deposits. The skimage label algorithm was used to label touching foreground regions.
To segment images to single cells the CellMask channel image was first binarized by adaptive thresholding, using a blocksize of 35, followed by median filtering. Binary erosion was performed to shrink the outlines. A version of watershed algorithm was used to segment the whole image into single cells. To this end, the distance transform of the binary erosion image was used as input image and seeds were set to the local maxima of the Hoechst channel image. While this protocol allowed for an approximation of single cell morphology, further improvements of both analytical and experimental staining procedure would be necessary to achieve more accurate results.
Additionally, texture features of calcein and CellMask channel images were extracted. Grey level co-occurrence matrices were calculated using one set offset of 5 pixel and an angle of 90°. Here, the use of larger offsets could improve the detection of changes in large-scale features, e.g. CaP clustering sites. […]

[3] = 7 mM phosphate, 5 mM calcium, 24 h

Structure (SMILES): COCCOCCO[C@@H]1C(OP(=O)(O)O)[C@H](OCCOCCOC)[C@@H](OP(=O)(O)O)C(OP(=O)(O)O)[C@H]1OP(=O)(O)O (stereo partly shown) [(OEG2)2-IP4]
- Ca/P-induced change in gene expression profile ([1]; 5/7 mM Ca/P, 24 h): prevented
- differentially expressed genes, Ca/P+compound vs. compound only ([1]; fold change ≥1.5 and p≤0.05): 77
- differentially expressed genes, Ca/P+compound vs. negative ctrl ([1]; fold change ≥1.5 and p≤0.05): 76
- differentially expressed genes, Ca/P+compound vs. positive ctrl ([1]; fold change ≥1.5 and p≤0.05): 2437
- differentially expressed genes, compound only vs. positive ctrl ([1]; fold change ≥1.5 and p≤0.05): 2935
- concentration achieving complete inhibition of CaP adhesion [2, 3]: 50 µM
- concentration down to which CaP adhesion was drastically reduced [2, 3]: 12.5 µM
- single cell area compared to the positive ctrl ([2]; 6-50 μM compound, 5/7 mM Ca/P): dose-dependently reduced
- single cell solidity compared to the positive ctrl ([2]; 6-50 μM compound, 5/7 mM Ca/P): increased
- total cell count/field of view compared to the positive ctrl ([2]; 6-50 μM compound, 5/7 mM Ca/P): increased
- number of dead cells compared to the positive ctrl ([2]; 6-50 μM compound, 5/7 mM Ca/P, EthD staining): dose-dependently reduced
- image feature profile vs positive ctrl (+5/7 mM Ca/P) and negative ctrl ([2]; 6-50 μM compound, 24 h): dose-dependent reversal
- total CaP area compared to the positive ctrl ([2]; 6 and 13 μM compound, 5/7 mM Ca/P, calcein staining): reduction
